SMILES strings stand for the structures. Bounds are passed on as bounds.

The assay deals with T1, Tyrosine-protein phosphatase non-receptor type 22 (Homo sapiens, UniProt Q9Y2R2).
T1 sequence (Q9Y2R2 whole entry): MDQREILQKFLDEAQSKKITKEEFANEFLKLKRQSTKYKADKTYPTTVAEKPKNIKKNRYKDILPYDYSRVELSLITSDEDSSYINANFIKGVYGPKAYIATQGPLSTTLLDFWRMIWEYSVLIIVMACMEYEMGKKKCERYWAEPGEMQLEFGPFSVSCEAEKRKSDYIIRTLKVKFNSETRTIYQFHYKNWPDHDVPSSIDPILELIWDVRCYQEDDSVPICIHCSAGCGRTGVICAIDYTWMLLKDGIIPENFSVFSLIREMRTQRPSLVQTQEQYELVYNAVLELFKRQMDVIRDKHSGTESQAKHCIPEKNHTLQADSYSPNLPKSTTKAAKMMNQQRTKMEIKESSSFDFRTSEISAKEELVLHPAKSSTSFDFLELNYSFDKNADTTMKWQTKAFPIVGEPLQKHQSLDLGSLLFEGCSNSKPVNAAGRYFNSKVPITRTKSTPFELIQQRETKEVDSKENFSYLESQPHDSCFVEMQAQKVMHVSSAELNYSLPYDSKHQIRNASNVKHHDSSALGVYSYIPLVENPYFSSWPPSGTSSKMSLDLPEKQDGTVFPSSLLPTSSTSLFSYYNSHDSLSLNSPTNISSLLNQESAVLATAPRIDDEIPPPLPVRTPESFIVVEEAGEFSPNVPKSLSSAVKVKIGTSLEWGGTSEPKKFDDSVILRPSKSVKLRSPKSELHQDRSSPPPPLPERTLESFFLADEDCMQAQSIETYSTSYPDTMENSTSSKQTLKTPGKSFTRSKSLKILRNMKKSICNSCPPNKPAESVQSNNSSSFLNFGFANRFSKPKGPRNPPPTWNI
Briefly: inhibition of lymphoid tyrosine phosphatase LYP – biochemical, pCAP fluorogenic substrate, fluorescence, set 3, SAR follow-up (AID 449727).

As to `CCOc1ccc2nc(NC(=O)CSc3cc(O)c4c(C)c(C)sc4n3)sc2c1` [2-[(2,3-dimethyl-4-oxidanylidene-5H-thieno[2,3-b]pyridin-6-yl)sulfanyl]-N-(6-ethoxy-1,3-benzothiazol-2-yl)ethanamide], the IC50 (as a rule, the point on the concentration scale where inhibition reaches its midpoint) is above 100 µM.

(Values after BindingDB's records for doi:10.7270/Q2M9073J (Burnham Center For Chemical Genomics, 2010).)
